The test system of assay [1] is COX-2 mRNA. Put plainly: Northern blot for COX-2 mRNA in RAW 264.7 cells. The format is cell-based, mouse. The conditions noted are these: CDDO 10^−6 M, RAW 264.7, 12 h. Here is the method: (§1) FIG. 14(A) illustrates Western blots; primary mouse macrophages; IFN-γ, 10 ng/ml; LPS, 2 ng/ml were added to cultures together with triterpenoids or dexamethasone (concentrations shown as […]); cells were harvested at 12 h. FIG. 14(B) illustrates Northern blots, RAW 264.7 macrophage-like cell line. IFN-γ, 10 ng/ml; LPS, 1 ng/ml; TNF-α, 10 ng/ml, were added to cultures together with CDDO or dexamethasone. RNA prepared after 12 h; GAPDH used as a loading control. FIG. 14(C) illustrates suppression of production of NO and PGEF in primary macrophages. For NO studies, cells were treated with IFN-γ, 10 ng/ml, together with CDDO (M), dexamethasone (O), TP-82 (□), or oleanolic acid (A). After 48 h, supernatants were analyzed for NO by the Griess reaction. For PGEF studies, cells were treated with IFN-γ, 5 ng/ml, and LPS, 5 ng/ml, together with the same set of inhibitors. After 48 h, PGE was measured in supernatants by immunoassay. Control values (no inhibition) for NO and PGE2 were 4.7 nmol/[…] and 2.2 ng/ml/2×10^5 cells, respectively. FIGS. (14D) and (14E) illustrate (human colon myofibroblasts) ^18Co cells grown in MEM/10% FBS; other methods are the same as reported above for macrophages. FIG. 14(D) illustrates Northern blots showing dose-response for suppression of COX-2 mRNA after induction with IL-1β (30 pg/ml). CDDO was added together with IL-1. […]

For assay [2], the target named is T1, COX-2 enzymatic activity (Mus musculus, UniProt Q05769).
T1 construct: added to RAW cells in which synthesis of these two enzymes has already been induced; endogenous in cells; host or cells: RAW 264.7 mouse macrophage-like cells, enzyme synthesis pre-induced
T1 sequence (Q05769 18-604): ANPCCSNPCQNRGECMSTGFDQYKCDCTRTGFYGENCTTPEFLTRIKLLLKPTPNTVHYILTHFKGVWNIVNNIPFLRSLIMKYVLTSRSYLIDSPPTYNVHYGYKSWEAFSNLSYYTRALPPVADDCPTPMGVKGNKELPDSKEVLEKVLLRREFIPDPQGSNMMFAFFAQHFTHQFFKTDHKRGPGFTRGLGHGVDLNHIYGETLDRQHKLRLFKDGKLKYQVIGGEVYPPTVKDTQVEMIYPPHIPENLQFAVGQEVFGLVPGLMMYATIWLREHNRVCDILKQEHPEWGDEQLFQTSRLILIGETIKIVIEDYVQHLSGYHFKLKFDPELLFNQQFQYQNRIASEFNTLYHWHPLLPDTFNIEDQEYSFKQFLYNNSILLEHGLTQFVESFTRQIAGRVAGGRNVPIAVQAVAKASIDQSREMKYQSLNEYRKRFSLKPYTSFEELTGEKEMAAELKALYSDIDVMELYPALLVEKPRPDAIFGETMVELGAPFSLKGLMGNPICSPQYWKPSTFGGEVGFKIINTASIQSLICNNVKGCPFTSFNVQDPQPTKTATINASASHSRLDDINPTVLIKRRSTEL
Put plainly: Prostaglandin production in RAW cells with enzyme synthesis already induced. In kind it is cell-based. The conditions noted are these: added after enzyme synthesis induced; data not shown. The source says:
These effects of CDDO have been seen in primary mouse macrophages, a mouse macrophage-like tumor cell line (RAW 264.7), and in non-neoplastic human colon fibroblasts. […] Neither iNOS nor COX-2 expression can be detected in these cells until they are stimulated by an inflammatory mediator such as IFN-γ, or LPS. […] The above effects on INOS and COX-2 are also reflected in the cumulative production of their respective enzyme products, NO and PGE2, as measured in primary macrophages (FIG. 14C). […] Likewise, the actions of CDDO are not blocked by the glucocorticoid antagonist, RU-486, which is known to bind to the glucocorticoid receptor (data not shown). In these regards, CDDO is identical to the other oleanolic acid derivatives previously studied (Suh et al., 1998).

Assay [3] has as its system LCDB acute myelogenous leukemia cell line. Put plainly: Monocytic differentiation, α-naphthyl acetate esterase staining. In kind it is cell-based, human. Here is the method: CDDO induces monocytic differentiation in the poorly differentiated LCDB acute myelogenous leukemia cell line, derived from a chemotherapy-resistant patient at the NCI Pediatric Oncology Branch. FIG. 11 illustrates LCDB cells seeded in RPMI 1640/2% FBS, either alone (11A), with 2.5 ng/ml TGF-β1 (11B), with 10^−8 M CDDO (11C), or with both TGF-β1 and CDDO (11D). After 48 h, cytospin slide preparations were made and stained for α-naphthyl acetate esterase activity (kit from Sigma). PC12 cells were cultured for 5 days in gridded dishes in DMEM/10% FBS and 5% horse serum (Smith et al., 1997), either alone (11E), with 100 ng/ml 7S NGF (11F), with 10^−6 M CDDO (11G), or with both NGF and CDDO (11H). […] Methods for quantitative image analysis of size of cells and neurites have been described (De 1a Torre et al., 1997). Control cells in FIG. 11E are approximately 10 μm in diameter. 3T3-L1 cells were grown to confluency in DMEM/5% calf serum, and then treated once with CDDO in DMEM/10% FBS (FIG. 12A) or with CDDO and/or LG100268 in DMEM/10% FBS (FIG. 12B). Every two days thereafter, medium was changed to DMEM/10% FBS, without added CDD0 or LG100268. Cells were harvested on day 8 (FIG. 12A) or day 6 (FIG. 12B), and GPDH was measured in lysates, using a standard assay for consumption of NADH at 340 nm (Wise and Green, 1979).

Assay [4] concerns NO production in primary macrophages. Nature of the assay: Suppression of NO production in primary macrophages (FIG. 14C). The format is cell-based, mouse. The conditions noted are these: levels as low as 10^−9 M; IFN-γ 10 ng/ml, 48 h. Here is the method:
as §1

Assay [5] concerns COX-2 mRNA. Nature of the assay: Northern blot for IL-1β-induced COX-2 mRNA in 18Co colon myofibroblasts. In kind it is cell-based, human. The conditions noted are these: 18Co cells, IL-1β 30 pg/ml. Here is the method:
as §1

Assay [6] deals with PGE2 production in primary macrophages. Put plainly: Suppression of PGE2 production in primary macrophages (FIG. 14C). In kind it is cell-based, mouse. The conditions noted are these: levels as low as 10^−9 M; IFN-γ 5 ng/ml and LPS 5 ng/ml, 48 h. Here is the method: as §1
The test system of assay [7] is THP-1 monocytic leukemia line. Put plainly: Differentiation of leukemia cells (data not shown). The format is cell-based, human. The conditions noted are these: by itself or in combination with TGF-β1.
The test system of assay [8] is 21-MT-2 ER negative breast carcinoma cells. Put plainly: Inhibition of cell proliferation (3H-thymidine incorporation). In kind it is cell-based, human. The conditions noted are these: 3 or 4 days, 3H-thymidine 2 h. Here is the method: (§2) All cells were obtained from ATCC, except as noted. They were grown under standard conditions in either DMEM, DMEM/F 12, or RPMI 1640 media plus 5-10% FBS. CDDO, over the dose range 10^−6 to 10^−10 M, was added to cultures at the time of seeding. Three or 4 days later, cells were treated with ^3H-thymidine for 2 h (12 h in the case of leukemia cells), and then incorporation was measured. “ER” means estrogen receptor.
For orientation: Incorporation of labelled thymidine or its analogues reports DNA synthesis.

Assay [9] relates to KG-1 acute myeloid leukemia cells. Described as above. The format is cell-based, human. The conditions noted are these: 3 or 4 days, 3H-thymidine 12 h. Here is the method: as §2
Assay [10] has as its system MDA-MB-231 ER negative breast carcinoma cells. The description is as above. The conditions noted are these: 3 or 4 days, 3H-thymidine 2 h. In kind it is cell-based, human. Here is the method:
as §2

Assay [11] concerns HL-60 myelocytic leukemia cells. Described as above. In kind it is cell-based, human. The conditions noted are these: 3 or 4 days, 3H-thymidine 12 h. Here is the method:
as §2

Assay [12] has as its system PGE2 production in 18Co cells. Nature of the assay: PGE2 in culture medium of IL-1β-treated 18Co cells. The format is cell-based, human. The conditions noted are these: IL-1β 30 pg/ml. Here is the method:
as §1

The values that follow come from patent US20080234368A9, “Therapeutic compositions and methods of use” (Trustees of Dartmouth College, priority 1998, published 2008).

One may read the IC50 as the concentration that gives 50% inhibition. Read a low IC50 as inhibition by little substance.

For `CC1(C)CC[C@]2(C(=O)O)CC[C@]3(C)[C@H](C(=O)C=C4[C@@]5(C)C=C(C#N)C(=O)C(C)(C)[C@@H]5CC[C@]43C)[C@@H]2C1` [Compound 6, 2-cyano-3,12-dioxoolean-1,9-dien-28-oic acid], the “lowering of COX-2 mRNA expression” value in [1] is “greater than 75%”. For the same compound, the “immediate effect on prostaglandin production (direct inhibition of COX-2)” value in assay [2] was “no immediate effect”. Further, the “α-naphthyl esterase activity, combination effect” value in [3] (10^−8 M CDDO with 2.5 ng/ml TGF-β1) was “additive effect”. Besides, the “induction of α-naphthyl esterase activity (monocytic differentiation)” value in assay [3] (10^−8 M CDDO, within 48 h) is “induced the activity of this enzyme”. For the same compound, the “inhibition of cumulative NO production” value in [4] is “Significant inhibition”. In addition, the “induction of COX-2 mRNA” value in assay [5] is given as “blocked induction”. In addition, the “inhibition of cumulative PGE2 production” value in assay [6] is given as “Significant inhibition”. Moreover, the differentiative effects entry in assay [7] is on record as “differentiative effects”. Further, the IC50 in assay [8] was found to be 300 nM; in assay [9] it was 200 nM; in assay [10] it was 1000 nM; in [11], 100 nM. The “PGE2 levels in the culture medium” value in [12] is “lowering of PGE2 levels”.
